From publication PMC5983770, “Preferential Inhibition of Wnt/β-Catenin Signaling by Novel Benzimidazole Compounds in Triple-Negative Breast Cancer” (International Journal of Molecular Sciences, 2018)
≈ marks a conversion by molar mass, not a printed value. Read-outs that look alike come from different tables or passages of the source.

B1: Mesd: an LRP6 antagonist (protein, UniProt Q14696 34-234, looked up)
LRP chaperone MESD: AEGSPGTPDESTPPPRKKKKDIRDYNDADMARLLEQWEKDDDIEEGDLPEHKRPSAPVDFSKIDPSKPESILKMTKKGKTLMMFVTVSGSPTEKETEEITSLWQGSLFNANYDVQRFIVGSDRAIFMLRDGSYAWEIKDFLVGQDRCADVTLEGQVYPGKGGGSKEKNKTKQDKGKKKKEGDLKSRSSKEENRAGNKREDL

Assays:
[1] = tested on: SUM149, SUM159, MDA-MB-231 and MDA-MB-468 TNBC cell lines
Protocol: (§3) MCF10A and TNBC cells (2 × 10^3) were seeded with appropriate growth media containing 10% FBS in each well of tissue culture-treated 96-well black plates (Corning #3904) (Corning, NY, USA) 16 h prior to treatment. […] Cell viability was then evaluated with Cell Titer Glo (Promega, Madison, WI, USA) and luminescence was measured using a TOPCount NXT plate reader (PerkinElmer, Waltham, MA, USA). Curves were fit according to nonlinear regression and IC50 values were calculated using GraphPad Prism 7. Cells were treated in quadruplicates and experiments were performed three times.

MDA-MB-468 cells = experiment: Annexin V/PI apoptosis assay (flow cytometry); format: cell-based, human; settings: MDA-MB-468, 5 µM, 48 h
Protocol: (§1) Cells were seeded in 6-well tissue-culture treated plates (Corning) for overnight incubation. Culture media was replaced with growth media containing 1% FBS. Cells were treated with compounds for 48 h prior to harvest. Apoptosis/necrosis was detected by the FITC Annexin V Apoptosis Detection Kit I from Becton Dickinson (San Jose, CA, USA). Cells positive for Annexin V, propidium iodide (PI) or both were all designated as apoptotic.

MDA-MB-231 cells = experiment: Annexin V/PI apoptosis assay (flow cytometry); format: cell-based, human; settings: 48 h; for apoptosis compared to DMSO / scatterplot quadrant Q1 (Annexin V/PI) / scatterplot quadrant Q3 (Annexin V/PI) / scatterplot quadrant Q2 (Annexin V/PI) / scatterplot quadrant Q4 (Annexin V/PI): MDA-MB-231, 5 µM; for percentage of MDA-MB-231 cells in the late apoptotic phase (% of total): 5 µM, vehicle control 8.1%; for scatterplot quadrant Q1 (Annexin V/PI): DMSO 1.1; for scatterplot quadrant Q3 (Annexin V/PI): DMSO 3.4; for scatterplot quadrant Q2 (Annexin V/PI): DMSO 8.1; for scatterplot quadrant Q4 (Annexin V/PI): DMSO 87.5
Protocol: as §1

[2] = cited from earlier work
p4EBP1 (mTOR signaling) [3] = experiment: Western blot of 4EBP1 phosphorylation (mTOR signaling) in TNBC cell lines; format: cell-based, human; settings: for phosphorylation of 4EBP1: both TNBC cell lines, 18 h
Protocol: (§2) Cells were seeded in 6-well tissue-culture treated plates for 48 h until 80% confluency prior to treatment. Whole cell extracts were prepared with Laemmli buffer (5% SDS, 10% glycerol, 0.5 M Tris-Cl) supplemented with protease and phosphatase inhibitors and equivalent amounts of proteins were separated by SDS-PAGE. Proteins were transferred to polyvinylidene difluoride (PVDF) membrane (Bio-Rad, Hercules, CA, USA) and blocked with 5% BSA in tris-buffered saline (TBS) supplemented with 0.1% Tween-20 for 1 h. Membranes were incubated with primary antibody overnight on a shaker at 4 °C. They were then washed and incubated with secondary antibody for 1 h. Bands were visualized with the Enhanced Chemiluminescence Detection reagents (PerkinElmer).

phosphodiesterase = tested on: phosphodiesterase; parameters: method as in PMID 22264761; settings: screen of thirty 6-nitrobenzimidazoles; cited from earlier work
Wnt/β-catenin signaling [4] = settings: cited from earlier work
Notch signaling (Hes1) = experiment: Western blot of Notch signaling (Hes1); format: cell-based; settings: as summarised in the abstract
Protocol: as §2

Wnt/β-catenin signaling [5] = experiment: Effect on Wnt/β-catenin signaling (Western blot); format: cell-based; settings: as summarised in the abstract
Protocol: as §2

[6] = tested on: SUM149, SUM159, MDA-MB-231 and MDA-MB-468 TNBC cell lines; experiment: In vitro cytotoxicity (Cell Titer Glo cell viability); settings: for selective cytotoxicity against TNBC cell lines compared to MCF10A cells: TNBC cell lines versus MCF10A cells; for IC50: Homo sapiens, 72 h, read-out: IC50 values for TNBC cell lines (cell viability)
Protocol: as §3

pSTAT3 (Y705), STAT3 = experiment: Western blot of STAT3 phosphorylation and STAT3β isoform; format: cell-based; settings: for expression of the pSTAT3β and total STAT3β isoform (lower band): MDA-MB-468 and MCF10A cells; for expression of the pSTAT3β and total STAT3β isoform (lower band) / STAT3 phosphorylation: 18 h; for STAT3 phosphorylation: TNBC and MCF10A cells, 2.5 or 5 µM
Protocol: as §2

phosphorylated LRP6 [7] = experiment: Western blot of phosphorylated LRP6 in MCF10A cells; format: cell-based; settings: 2.5 or 5 µM, 18 h
Protocol: as §2

cyclin D1 and survivin [8] = experiment: Western blot of cyclin D1 and survivin in TNBC cells; format: cell-based, human; settings: 2.5 and 5 µM, 18 h
Protocol: as §2

active β-catenin = experiment: Immunocytochemistry of active β-catenin; format: cell-based, human; settings: MDA-MB-231 and MDA-MB-468 cells, 5 µM, 18 h
Protocol: Cells were seeded on coverslips for 48 h prior to treatment with DMSO and SR compounds for 18 h. Cells were washed with PBS, fixed with 4% paraformaldehyde for 20 min and permeabilized with 0.5% Triton X-100 for 20 min. Following blocking with 3% BSA for 30 min, cells were incubated overnight with active β-catenin antibody (MilliporeSigma) at 4 °C. Cells were incubated with Alexa 488 goat anti-mouse secondary antibody (1:1000) at room temperature for 1 h. To counterstain, cells were incubated with 1:5000 Hoechst 33342 for 20 min. […] Images were obtained at 20× magnification.

[9] = tested on: active (non-phosphorylated) β-catenin; experiment: Western blot of active β-catenin after cytoplasmic-nuclear fractionation; format: cell-based, human; settings: 5 µM, 18 h; for nuclear active β-catenin expression (Western blot): TNBC cells
Protocol: as §2
Cells were lysed using the CERI and CERII reagents of the cytoplasmic-nuclear extraction kit (ThermoFisher), to obtain cytoplasmic fractions following treatment. Nuclear fractions were isolated by using 1× Laemmli buffer and sonication for a few seconds. Membrane was incubated overnight with active β-catenin (MilliporeSigma, Burlington, MA, USA), lamin A/C and tubulin antibodies.

p4EBP1 (mTOR signaling) [10] = experiment: Western blot of 4EBP1 phosphorylation (mTOR signaling) in MCF10A cells; format: cell-based; settings: 18 h
Protocol: as §2

[11] = tested on: noncancerous MCF10A cells; experiment: In vitro cytotoxicity (Cell Titer Glo cell viability); format: cell-based; settings: Homo sapiens, MCF-10A; 0–5 µM, 72 h
Protocol: as §3

phosphorylated LRP6 [12] = experiment: Western blot of phosphorylated LRP6 in TNBC cell lines; format: cell-based, human; settings: both TNBC cell lines (MDA-MB-231, MDA-MB-468), 18 h
Protocol: as §2

cyclin D1 and survivin [13] = experiment: Western blot of cyclin D1 and survivin in MCF10A cells; format: cell-based; settings: 2.5 µM, 18 h, compared with niclosamide
Protocol: as §2

[14] = rat liver microsomes; introduction, no reference given; cited from earlier work
[15] = pH 7.4; introduction, no reference given; cited from earlier work
[16] = parameters: method as in PMID 20194742; settings: cited from earlier work

Row | Molecule | apoptosis compared to DMSO (MDA-MB-468 cells) | apoptosis compared to DMSO (MDA-MB-231 cells) | phosphorylated LRP6 (phosphorylated LRP6 [7]) | IC50 [11] | percentage of MDA-MB-231 cells in the late apoptotic phase (% of total) (MDA-MB-231 cells) | scatterplot quadrant Q1 (Annexin V/PI) (MDA-MB-231 cells) | scatterplot quadrant Q3 (Annexin V/PI) (MDA-MB-231 cells) | scatterplot quadrant Q2 (Annexin V/PI) (MDA-MB-231 cells) | scatterplot quadrant Q4 (Annexin V/PI) (MDA-MB-231 cells) | IC50 [6] | expression of the pSTAT3β and total STAT3β isoform (lower band) (pSTAT3 (Y705), STAT3) | STAT3 phosphorylation (pSTAT3 (Y705), STAT3) | further results
1 | 2-(5-Chloro-6-fluoro-1H-benzo[d]imidazol-2-yl)-4-fluorophenol [SRI35361] | did not induce significantly more apoptosis | did not induce significantly more apoptosis |  |  |  |  |  |  |  |  |  |  | selective cytotoxicity against TNBC cell lines compared to MCF10A cells [1]: not selectively cytotoxic
2 | C=CCN1CC(=O)N2[C@@H](Cc3ccc(OP(=O)([O-])[O-])cc3)C(=O)N(Cc3cccc4cn(C)nc34)C[C@@H]2N1C(=O)NCc1ccccc1.[Na+].[Na+] [CWP232228] |  |  |  |  |  |  |  |  |  |  |  |  | blood concentration ([2]; IV, 200 mg/kg, for 7 h): 800 ng/mL; toxicity in animals [2]: minimal toxicity and no obvious clinical signs
3 | O=[N+]([O-])c1ccc2nc(-c3cc(Cl)ccc3O)[nH]c2c1 [SRI32529] |  |  |  |  |  |  |  |  |  |  |  |  | effect on mTOR signaling (p4EBP1 (mTOR signaling) [3]; as summarised in the abstract): mitigated; outcome of screen for phosphodiesterase inhibitors (phosphodiesterase): not selected as one of the effective inhibitors; potency in inhibiting Wnt/β-catenin signaling relative to SRI33576 (Wnt/β-catenin signaling [4]): less potency; effect on Notch signaling (Notch signaling (Hes1)): mitigated; effect on Wnt/β-catenin signaling (Wnt/β-catenin signaling [5]): inhibited Wnt/β-catenin signaling; selective cytotoxicity against TNBC cell lines compared to MCF10A cells [6]: not selectively cytotoxic; effect on STAT3 signaling (pSTAT3 (Y705), STAT3; as summarised in the abstract): mitigated
4 | Oc1ccc(Cl)cc1-c1nc2ccc(C(F)(F)F)cc2[nH]1 [SRI33576] | induced significantly more apoptosis | induced significantly more apoptosis | not | 5000 nM | 24% | 10.7 | 11.1 | 24.0 | 54.3 | 1900 to 3200 nM | not | noticeably less of an effect | expression of cyclin D1 and survivin (cyclin D1 and survivin [8]): decreased expression; nuclear active β-catenin expression (immunocytochemistry) (active β-catenin): a decrease in nuclear active β-catenin expression; nuclear active β-catenin expression (Western blot) [9]: decreased nuclear active β-catenin expression; phosphorylation of 4EBP1 (p4EBP1 (mTOR signaling) [10]; 5 µM): did not yield such a change; phosphorylation of 4EBP1 (p4EBP1 (mTOR signaling) [3]; 5 µM): inhibited phosphorylation of 4EBP1; inhibition of Wnt/β-catenin signaling (Wnt/β-catenin signaling [4]; colorectal cancer cells, decreasing cytosolic axin2 and β-catenin and overall c-myc, survivin and cyclin D1): inhibit Wnt/β-catenin signaling; phosphorylated LRP6 (phosphorylated LRP6 [12]; 5 µM): decreased phosphorylated LRP6
5 | Oc1ccc(F)cc1-c1nc2c(Cl)cc(Cl)cc2[nH]1 [SRI35357, 2-(5,7-Dichloro-3H-benzo[d]imidazol-2-yl)-4-fluorophenol] |  |  |  |  |  |  |  |  |  |  |  |  | selective cytotoxicity against TNBC cell lines compared to MCF10A cells [6]: not selectively cytotoxic
6 | Oc1ccc(Cl)cc1-c1nc2cc(Cl)c(Cl)cc2[nH]1 [SRI35889, 4-Chloro-2-(5,6-dichloro-1H-benzo[d]imidazol-2-yl)phenol] | induced significantly more apoptosis | induced significantly more apoptosis | not | 5400 nM | 26.5% | 15.1 | 11.0 | 26.5 | 47.4 | 1100 to 2400 nM | not | noticeably less of an effect | expression of cyclin D1 and survivin (cyclin D1 and survivin [8]): decreased expression; nuclear active β-catenin expression (immunocytochemistry) (active β-catenin): a decrease in nuclear active β-catenin expression; cytoplasmic β-catenin (Western blot) ([9]; MDA-MB-468 cells): decreased cytoplasmic β-catenin; nuclear active β-catenin expression (Western blot) [9]: decreased nuclear active β-catenin expression; phosphorylation of 4EBP1 (p4EBP1 (mTOR signaling) [10]; 2.5 µM, compared with TNBC cell lines): less of a change; phosphorylation of 4EBP1 (p4EBP1 (mTOR signaling) [3]; 2.5 and 5 µM): inhibited 4EBP1 phosphorylation; cyclin D1 or survivin expression (cyclin D1 and survivin [13]): did not affect cyclin D1 or survivin expression as much as niclosamide; effect on Notch signaling (Notch signaling (Hes1)): not affecting; phosphorylated LRP6 (phosphorylated LRP6 [12]; 2.5 and 5 µM): decreased phosphorylated LRP6
7 | O=C(Nc1ccc([N+](=O)[O-])cc1Cl)c1cc(Cl)ccc1O [niclosamide, reference compound] |  |  | decreased phosphorylated LRP6 | 1000 nM | 29.5% | 6.09 | 10.5 | 29.5 | 53.9 | 300 to 1000 nM | markedly decreased | downregulated STAT3 phosphorylation | metabolic stability t1/2 [14]: 29 min; solubility [15]: 1.6 µM (≈ 0.523 µg/mL)
8 | B1 |  |  |  |  |  |  |  |  |  |  |  |  | time of highest blood concentration ([16]; mice dosed with 5, 10, 20 mg/kg): 2 h; bioavailability ([16]; mice): about 60%
